Assay results reported in patent US20060019329A1, “Method of screening for protein inhibitors and activators” (priority 1988, published 2006).

Assays:
[1] = test system: cell lines overproducing PKC; assay: Growth in agar of cell lines overproducing PKC (further screening of activators and inhibitors); type: cell-based, rat; conditions: PKC-overproducing cell lines; known activators or inhibitor of PKC
Description: Cells were seeded at a density of 10^4/plate in a series of 60 mm plates, in 5 ml DMEM plus 10% CS. Twenty-four hours later, cells in triplicate plates were trypsinized and counted. This point was designated “day 0.” The remaining cultures were then grown in the respective medium (i.e. plus or minus 100 ng/ml TPA) with fresh medium changes twice per week. Cell counts per plate were then determined on triplicate plates during the remainder of the growth curve (FIG. 3). The results obtained were analyzed for exponential doubling time and saturation density (Table 2). To assess growth in soft agar (anchorage independence), 2×10^4 cells were suspended in 2 ml of 0.3% Bacto agar (Difco Laboratories, Detroit, Mich.) in DMEM containing 20% fetal calf serum (FCS) and overlayed above a layer of 5 ml of 0.5% agar in the same medium, on 60 mm petri dishes. The cells were then overlaid with DMEM plus 20% FCS every 4 days. At the end of 30 days, colonies were stained with the vital stain 2-(p-iodophenyl)-3-(p-nitrophenyl)-5-phenyltetrazolinium chloride hydrate (INT) (Sigma Chemical Co., St. Louis, Mo.) for 48 hours at 37° C., in an incubator with 5% CO2 (Schaeffer and Friend, 1976), and the number of colonies counted under low power on an inverted phase microscope. The data are expressed as “cloning efficiency”, i.e. number of colonies greater than 0.05 mm per plate X 100 divided by the number of cells originally seeded per plate.
Additional compounds tested included the tumor promoters teleocidin, aplysiatoxin, and mezerein, all of which are known activators of PKC (O'Brian, et al., CSH, 1985).
Inhibition of the growth of the R6-PKC3 cells in agar in the presence of tamoxifen provided critical evidence that tamoxifen could inhibit PKC-mediated stimulation of cellular growth.

[2] = test system: CHO/HIRC cells overproducing the human insulin receptor; assay: Morphologic and growth control effects of insulin on CHO/HIRC test cells; type: cell-based, Chinese Hamster; conditions: 400 nM insulin
Text: (§1) These cell lines were generated using approaches analogous to those previously described for the PKC-overproducing cell lines. However, in these HIR studies we utilized a different expression vector, distinct cell lines, and an alternative method of gene transfer (direct transfection as opposed to virus-mediated transduction as used in the PKC experiments previously described). Briefly, CHO cells were co-transfected with the transfer vector pSVEneo (containing the neomycin resistance gene) and the expression vector pCVSVHIRc as previously described (White et al., 1988). After twenty four hours, the transfected cells were placed into 800 ug/ml G418 to select resistant cells. Approximately two weeks later, G418-resistant clones were isolated and subcloned. Clonal cell lines which express high levels of surface insulin receptors were selected by fluorescence-activated cell sorting. One such line (CHO/HIRC), which stably overproduced approximately 80,000 insulin receptors per CHO cell, was utilized in these experiments. A control CHO cell line (CHO/NEO), harboring only the pSVEneo transfer vector, were generated in analogous fashion. Detailed preliminary characterizations of this cell line have been described (White et al., 1988).
We then tested the ability of the CHO/HIRC and CHO/NEO cells to respond to the following insulin treatment protocol. Control cells, hereinafter termed CHO/NEO (which harbor pSVEneo alone), and the Test cells, termed CHO/HIRC (which stably overproduced about 80,000 insulin receptors per cell), were incubated in the presence and absence of insulin. Control (CHO/NEO) and Test (CHO/HIRC) cell lines were exposed to 400 nM of insulin and the resultant morphologic changes were observed and photographed using a Bausch and Lomb BL-200 phase-contrast microscope with a Nikon FM-200 camera attached.

[3] = test system: CHO/NEO control cells; assay: Morphologic and growth control effects of insulin on CHO/NEO control cells; type: cell-based, Chinese Hamster; conditions: 400 nM insulin, 48 hours after treatment
Text: as §1
We then tested the ability of the CHO/HIRC and CHO/NEO cells to respond to the following insulin treatment protocol. […]

| Compound | modulation of the growth of the cells [1] | morphologic changes ([2]; 24 hours after exposure) | adherence to the culture plate ([2]; 48 hours after treatment) | morphologic changes ([2]; after 18 hours) | adherence to the culture plate [3] |
| --- | --- | --- | --- | --- | --- |
| CO[C@@H](CC[C@H](C)[C@H]1O[C@@]23C[C@H](OC(=O)C[C@H]([C@@H](C)O)OC(=O)C[C@](O)(O2)[C@H](C)CC3(C)C)[C@@H]1C)c1cc(O)ccc1Br [aplysiatoxin] | modulated the growth of the cells in the expected manner | – | – | – | – |
| C=C(C)[C@@]12O[C@@]3(c4ccccc4)O[C@@H]1[C@@H]1[C@@H]4O[C@]4(CO)[C@@H](O)[C@]4(O)C(=O)C(C)=C[C@H]4[C@@]1(O3)[C@H](C)[C@H]2OC(=O)/C=C/C=C/c1ccccc1 [mezerein] | modulated the growth of the cells in the expected manner | – | – | – | – |
| insulin | – | further pronounced | virtually all of the test cells had completely detached from the plate | profound morphologic changes | still largely intact |
| teleocidin | modulated the growth of the cells in the expected manner | – | – | – | – |
